The record followed here is publication PMC6681222, “Discovery and Rational Design of a Novel Bowman-Birk Related Protease Inhibitor” (Biomolecules, 2019).

In one series the target is T1, trypsin (Bos taurus, UniProt P00760).
T1 construct: gene PRSS1
T1 sequence (P00760 24-246): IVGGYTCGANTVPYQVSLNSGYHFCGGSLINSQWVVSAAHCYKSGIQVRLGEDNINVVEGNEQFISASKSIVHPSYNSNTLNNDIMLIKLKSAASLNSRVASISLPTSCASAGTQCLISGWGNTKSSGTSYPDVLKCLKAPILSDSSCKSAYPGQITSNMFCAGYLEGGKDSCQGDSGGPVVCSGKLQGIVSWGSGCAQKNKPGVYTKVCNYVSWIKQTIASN
The series can be described thus: Trypsin inhibition assay. The series is classed as biochemical. The method, then: (§1) The trypsin, chymotrypsin inhibition tests were performed as described previously. 10 µL tryptase (1 mg/mL, Calbiochem, UK) was added to the wells of a micro-titer plate containing 180 µL substrate (Boc-Phe-Ser-Arg-NHMec, obtained from Bachem, UK) (50 µM) and 20 µL synthetic replicates (0.1–100 µM) in a tryptase buffer, pH7.6, containing 0.05 M Tris, 0.15 M NaCl, and 0.2% (w/v) polyethylene glycol 6000 (final volume 210 µL).
The inhibition curves of the trypsin/chymotrypsin inhibition assay and tryptase inhibition assay were formed as outlined before.
(§2) The progress curves for the hydrolysis of the fluorogenic substrate were used to estimate an initial rate (Vi) to generate the Morrison plots. All of the progress curves and corresponding Morrison plots in the presence of each peptide of different concentrations are shown in Figure S4.

For a further series, the target named is T2, tryptase (Homo sapiens, UniProt Q15661).
T2 construct: purchased Calbiochem, UK
The series can be described thus: Tryptase inhibition assay. The series is classed as biochemical. As to conditions: substrate Boc-Phe-Ser-Arg-NHMec 50 µM, peptide 0.1-100 µM, tryptase buffer pH 7.6, Morrison plot; average of three independent experiments. The method, then: as §1
(§3) The rate of hydrolysis of the substrate was monitored by measuring the rate of increase of fluorescence due to the release of 7–amino–4–methylcoumarin (AMC) at 460 nm (excitation 360 nm) in a FLUOstar OPTIMA multi-well plate reader. The inhibition curves of the trypsin/chymotrypsin inhibition assay and tryptase inhibition assay were formed as outlined before.
as §2

The target of another series is chymotrypsin (Bos taurus, UniProt P00766). The series can be described thus: Chymotrypsin inhibition assay. The series is classed as biochemical. As to conditions: fluorogenic substrate, AMC release (ex 360/em 460 nm), Morrison plot; average of three independent experiments. The protocol:
as §1, §3
PPF-BBI and its analogues were tested for inhibitory activity against trypsin, chymotrypsin and tryptase, respectively. The progress curves for the hydrolysis of the fluorogenic substrate were used to estimate an initial rate (Vi) to generate the Morrison plots. All of the progress curves and corresponding Morrison plots in the presence of each peptide of different concentrations are shown in Figure S4.

The next series relates to C. albicans (NCYC 1467). The series is classed as cell-based. The protocol:
(§4) The MIC and MBC of the synthetic peptides were determined as previously described, using S. aureus (NCTC 10788), E. coli (NCTC 10418) and C. albicans (NCYC 1467), together with two species of resistant micro-organisms, methicillin-resistant S. aureus (MRSA) (ATCC 12493) and P. aeruginosa (ATCC 27853).

Another series has as its system E. coli (NCTC 10418). The series is classed as cell-based. The method, then:
as §4

Series [1] deals with P. aeruginosa (ATCC 27853). Type of series: cell-based. The protocol:
as §4

For another series, the system named is S. aureus (NCTC 10788). Type of series: cell-based. The method, then: as §4
For series [2], the system named is methicillin-resistant S. aureus (MRSA) (ATCC 12493). Type of series: cell-based. The method, then: as §4
The next series relates to horse erythrocytes. The series can be described thus: Haemolysis test. The series is classed as cell-based. As to conditions: 2% suspension of horse erythrocytes, 512 to 1 µM peptide, 4 h; 2% Triton X-100 = 100% haemolysis. The method, then: The haemolytic activity of each peptide was measured by incubating a range of final peptide concentrations from 512 to 1 µM in a two-fold dilution in a 2% suspension of horse erythrocytes, as described in a previous study.
Figure 4 (a) The cell viability of the cancer cell lines H460, H157, H23, H838, HT-29, PC-3, U251MG and HMEC-1 at 4 mM 5-FU (stripe bar), 100 µM and 10 µM PPF-BBI, F^8-PPF-BBI, K^16-PPF-BBI and Tat-loop. The control represents the cell viability without any treatments. The statistical significance of difference was analyzed by a one-way ANOVA (* p < 0.05, **** p < 0.0001). (b) The haemolysis rates of PPF-BBI, F^8-PPF-BBI, K^16-PPF-BBI and Tat-loop on erythrocytes after being incubated for 4 h. The incubation of erythrocytes with 2% (v/v) Triton X-100 was designated as a positive control (100% haemolysis).

In brackets after ≈: the same amount, converted by molar mass. Entries after “also recorded” stand apart in the source; their conditions may differ. Bridge positions count the residues as written; N and C are the ends. Peptide text beside a SMILES is read from it.

T2 sequence (Q15661 31-275): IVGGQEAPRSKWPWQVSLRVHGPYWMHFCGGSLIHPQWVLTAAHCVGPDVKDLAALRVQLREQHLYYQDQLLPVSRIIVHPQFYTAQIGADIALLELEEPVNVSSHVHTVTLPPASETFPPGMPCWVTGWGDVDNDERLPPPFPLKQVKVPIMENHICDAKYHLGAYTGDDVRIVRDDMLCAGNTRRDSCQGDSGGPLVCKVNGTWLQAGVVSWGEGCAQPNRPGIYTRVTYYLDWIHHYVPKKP

With `CC[C@H](C)[C@@H]1NC(=O)[C@H](CO)NC(=O)[C@H](Cc2ccccc2)NC(=O)[C@H]([C@@H](C)O)NC(=O)[C@H](Cc2c[nH]c3ccccc23)NC(=O)[C@@H](NC(=O)CNC(=O)[C@H](CCCNC(=N)N)NC(=O)[C@H](CC(C)C)NC(=O)[C@H](C)N)CSSC[C@@H](C(=O)N2CCC[C@H]2C(N)=O)NC(=O)[C@@H]2CCCN2C(=O)[C@H](CCCCN)NC(=O)[C@@H]2CCCN2C(=O)[C@@H]2CCCN2C1=O` [F^8-PPF-BBI] (H-ALRGCWTFSIPPKPCP-NH2; disulfide 5-15), the “Ki (µM) of Trypsin” value on trypsin (fluorogenic substrate, AMC release (ex 360/em 460 nm), Morrison plot, average of three independent experiments) is “N.I.*”. Also, the “Ki (µM) of Tryptase” value at tryptase is given as “N.I.*”. Moreover, the inhibitory constant (Ki) on chymotrypsin is 0.85 µM. The MBC (in the series on C. albicans (NCYC 1467); with E. coli (NCTC 10418); in series [1]; against S. aureus (NCTC 10788); in series [2]) was over 512 µM each time. Further, the MIC (against C. albicans (NCYC 1467); against E. coli (NCTC 10418); in [1]; in the series with S. aureus (NCTC 10788); in series [2]) was over 512 µM each time.

For `CC[C@H](C)[C@@H]1NC(=O)[C@H](CO)NC(=O)[C@H](CCCCN)NC(=O)[C@H]([C@@H](C)O)NC(=O)[C@H](Cc2c[nH]c3ccccc23)NC(=O)[C@@H](NC(=O)CNC(=O)[C@H](CCCNC(=N)N)NC(=O)[C@H](CC(C)C)NC(=O)[C@H](C)N)CSSC[C@@H](C(=O)N[C@@H](CCCCN)C(N)=O)NC(=O)[C@@H]2CCCN2C(=O)[C@H](CCCCN)NC(=O)[C@@H]2CCCN2C(=O)[C@@H]2CCCN2C1=O` [K^16-PPF-BBI] (H-ALRGCWTKSIPPKPCK-NH2; disulfide 5-15), the results for the Ki at trypsin and on tryptase were 112 nM and 9.67 µM, respectively. The “Ki (µM) of Chymotrypsin” value on chymotrypsin is reported as “N.I.*”. For the same compound, the MBC against C. albicans (NCYC 1467) was found to be 128 µM (≈ 228 µg/mL); against E. coli (NCTC 10418) it was 128 µM (≈ 228 µg/mL); in series [1], 512 µM (≈ 912 µg/mL); against S. aureus (NCTC 10788) it was 64 µM (≈ 114 µg/mL); in [2] it was 512 µM (≈ 912 µg/mL). Besides, the MIC against C. albicans (NCYC 1467) came out at 128 µM (≈ 228 µg/mL); in the series on E. coli (NCTC 10418) it was 128 µM (≈ 228 µg/mL); in series [1], 512 µM (≈ 912 µg/mL); against S. aureus (NCTC 10788) it was 64 µM (≈ 114 µg/mL); in series [2] it was 512 µM (≈ 912 µg/mL).

Take `CC[C@H](C)[C@@H]1NC(=O)[C@H](CO)NC(=O)[C@H](CCCCN)NC(=O)[C@H]([C@@H](C)O)NC(=O)[C@H](Cc2c[nH]c3ccccc23)NC(=O)[C@@H](NC(=O)CNC(=O)[C@H](CCCNC(=N)N)NC(=O)[C@H](CC(C)C)NC(=O)[C@H](C)N)CSSC[C@@H](C(=O)N2CCC[C@H]2C(N)=O)NC(=O)[C@@H]2CCCN2C(=O)[C@H](CCCCN)NC(=O)[C@@H]2CCCN2C(=O)[C@@H]2CCCN2C1=O` [PPF-BBI] (H-ALRGCWTKSIPPKPCP-NH2; disulfide 5-15): the inhibition constant (Ki) at trypsin came out at 170 nM; on tryptase it was 30.7 µM. In addition, the “Ki (µM) of Chymotrypsin” value on chymotrypsin was “N.I.*”. The minimal bactericidal concentration (MBC) against C. albicans (NCYC 1467) is 512 µM (≈ 897 µg/mL); against E. coli (NCTC 10418) it was 128 µM (≈ 224 µg/mL); in series [1] it was over 512 µM; in the series on S. aureus (NCTC 10788), 128 µM (≈ 224 µg/mL); in series [2], over 512 µM. Moreover, the MIC was 512 µM (≈ 897 µg/mL) against C. albicans (NCYC 1467); 128 µM (≈ 224 µg/mL) in the series on E. coli (NCTC 10418); over 512 µM in series [1]; 128 µM (≈ 224 µg/mL) in the series with S. aureus (NCTC 10788); over 512 µM in series [2].

Regarding `CC[C@H](C)[C@@H]1NC(=O)[C@H](CO)NC(=O)[C@H](CCCCN)NC(=O)[C@H]([C@@H](C)O)NC(=O)[C@H](Cc2c[nH]c3ccccc23)NC(=O)[C@@H](N)CSSC[C@@H](C(=O)O)NC(=O)[C@@H]2CCCN2C(=O)[C@H](CCCCN)NC(=O)[C@@H]2CCCN2C(=O)[C@@H]2CCCN2C1=O` [TIL, reference compound], the “Ki (µM) of Tryptase” value on tryptase is reported as “lost their inhibitory activity; also recorded: N.I.*”. Moreover, the “Ki (µM) of Chymotrypsin” value at chymotrypsin is recorded as “N.I.*”. Besides, the MBC (in the series with C. albicans (NCYC 1467); in the series on E. coli (NCTC 10418); in [1]; against S. aureus (NCTC 10788); in [2]) was over 512 µM each time. Also, the MIC (against C. albicans (NCYC 1467); in the series on E. coli (NCTC 10418); in [1]; in the series on S. aureus (NCTC 10788); in series [2]) was over 512 µM throughout.

Consider `N=C(N)NCCC[C@H](NC(=O)[C@H](CCCNC(=N)N)NC(=O)[C@H](CCCNC(=N)N)NC(=O)[C@H](CCC(N)=O)NC(=O)[C@H](CCCNC(=N)N)NC(=O)[C@H](CCCNC(=N)N)NC(=O)[C@H](CCCCN)NC(=O)[C@H](CCCCN)NC(=O)[C@@H](N)CCCNC(=N)N)C(=O)O` [Tat, reference compound], for which the MBC against C. albicans (NCYC 1467) is over 512 µM; against E. coli (NCTC 10418), 256 µM (≈ 343 µg/mL); in series [1] it was over 512 µM; in the series with S. aureus (NCTC 10788), 512 µM (≈ 686 µg/mL); in [2] it was over 512 µM. For the same compound, the MIC is over 512 µM against C. albicans (NCYC 1467); 256 µM (≈ 343 µg/mL) against E. coli (NCTC 10418); over 512 µM in series [1]; 512 µM (≈ 686 µg/mL) in the series with S. aureus (NCTC 10788); over 512 µM in series [2].

On trypsin, `CC[C@H](C)[C@@H]1NC(=O)[C@H](CO)NC(=O)[C@H](CCCCN)NC(=O)[C@H]([C@@H](C)O)NC(=O)[C@H](Cc2c[nH]c3ccccc23)NC(=O)[C@@H](NC(=O)[C@H](CCCNC(=N)N)NC(=O)[C@H](CCCNC(=N)N)NC(=O)[C@H](CCCNC(=N)N)NC(=O)[C@H](CCC(N)=O)NC(=O)[C@H](CCCNC(=N)N)NC(=O)[C@H](CCCNC(=N)N)NC(=O)[C@H](CCCCN)NC(=O)[C@H](CCCCN)NC(=O)[C@@H](N)CCCNC(=N)N)CSSC[C@@H](C(=O)O)NC(=O)[C@@H]2CCCN2C(=O)[C@H](CCCCN)NC(=O)[C@@H]2CCCN2C(=O)[C@@H]2CCCN2C1=O` [Tat-loop] (H-RKKRRQRRRCWTKSIPPKPC-OH; disulfide 10-20) returned a Ki of 607 nM. Moreover, at tryptase, the “Ki (µM) of Tryptase” value is given as “lost their inhibitory activity; also recorded: N.I.*”. Moreover, the “Ki (µM) of Chymotrypsin” value at chymotrypsin is listed as “N.I.*”. The MBC with C. albicans (NCYC 1467) is 8 µM (≈ 20.6 µg/mL); with E. coli (NCTC 10418), 128 µM (≈ 330 µg/mL); in [1] it was 256 µM (≈ 660 µg/mL); with S. aureus (NCTC 10788), 128 µM (≈ 330 µg/mL); in [2] it was 512 µM (≈ 1320 µg/mL). Also, the MIC against C. albicans (NCYC 1467) came to 4 µM (≈ 10.3 µg/mL); against E. coli (NCTC 10418), 128 µM (≈ 330 µg/mL); in series [1], 256 µM (≈ 660 µg/mL); against S. aureus (NCTC 10788) it was 128 µM (≈ 330 µg/mL); in series [2], 256 µM (≈ 660 µg/mL). Besides, the Haemolytic activity entry in the series with horse erythrocytes was “low haemolytic activity”.

As usually defined, the Ki is the dissociation constant of the complex between target and ligand, obtained from inhibition or displacement. Low readings indicate a stronger hold on the target, high ones a looser hold on the target. As a reminder, the MBC is the lowest tested concentration that kills the bacteria rather than only halting them. Low readings indicate more potent killing, high ones less potent killing. As usually defined, the MIC is the smallest concentration in the dilution series that meets the test's criterion for growth inhibition. A low value points to a more susceptible organism.
